Results from article PMC2628638, “Catalytic inhibition of topoisomerase II by a novel rationally designed ATP-competitive purine analogue” (BMC Chemical Biology, 2009).
Blank lines part the entries; values can stand above or below the compound they belong to.

Experiments:
[1] = system: HCC1937 BRCA1 mutant and HCC1937 BRCA1 reconstituted cells; experiment: Clonogenic growth assay (WST-1, colony counting); assay type: cell-based; settings: continuous treatment for 9 days, WST-1 and colony numbers
Procedure: HCC1937 BRCA1 mutant and HCC1937 BRCA1 reconstituted breast ductal carcinoma cells were cultured in RPMI-1640 medium supplemented with 10% fetal calf serum, 2 mM L-glutamine, 1 mM sodium pyruvate, 4.5 g/l glucose and 1% (v/v) penicillin/streptomycin. Status of BRCA1 was corroborated by immunoprecipitation using 50 μg nuclear extracts and 1 μg mouse monoclonal antibody MS110 (ab16780, Abcam Inc., Cambridge, MA), which is directed towards the amino-terminus of the protein. Blots were probed with BRCA1 carboxy-terminal specific mouse monoclonal antibody D9 (sc-6954, Santa Cruz Biotechnologies, Santa Cruz, CA) and, following stripping, re-probed with antibody MS110. For assays, 5000 cells in 3 ml medium were seeded per well of 6 well plates in duplicates. The day after, vehicle (DMSO) or compounds were added. After one week medium was exchanged and vehicle or compounds were re-added for an additional two days. To assess proliferation the medium in each well was replaced with 1 ml medium containing 100 μl WST-1 reagent and incubation for 20 minutes at 37°C. Of each sample 110 μl supernatant were transferred into a 96 well plate and the OD was read at 450 nm (filter at 630 nm) on a SpectraMax Plus microtiter plate reader using SoftMax Pro software (Molecular Devices). For background correction, the blank value consisted of 100 μl medium containing 10 μl WST-1. Thereafter, colonies were stained by removing medium, washing cells once with PBS and incubation with 1 ml crystal violet solution for 30 minutes at room temperature. Cells were washed twice with PBS and colonies were counted using an Artec Counter (Model 880, Artec, Dyntatech Laboratories Inc.) with diameter cut-off set to 0.2 mm. Data were expressed as growth or colony numbers relative to vehicle control treatments (100%).

[2] = biological target: T1, topoisomerase II beta (Homo sapiens, UniProt Q02880); experiment: Affinity precipitation with biotinylated purine analogue 2 from HL-60 nuclear extracts; assay type: binding; settings: for competition of the interaction of biotinylated purine analogue 2 with topoisomerase II beta: 1 μM biotinylated analogue 2, competitor in excess (10 μM), QAP 1 also at equimolar concentration
T1 construct: endogenous in cells; host or cells: HL-60 nuclear extract
T1 sequence (Q02880 whole entry): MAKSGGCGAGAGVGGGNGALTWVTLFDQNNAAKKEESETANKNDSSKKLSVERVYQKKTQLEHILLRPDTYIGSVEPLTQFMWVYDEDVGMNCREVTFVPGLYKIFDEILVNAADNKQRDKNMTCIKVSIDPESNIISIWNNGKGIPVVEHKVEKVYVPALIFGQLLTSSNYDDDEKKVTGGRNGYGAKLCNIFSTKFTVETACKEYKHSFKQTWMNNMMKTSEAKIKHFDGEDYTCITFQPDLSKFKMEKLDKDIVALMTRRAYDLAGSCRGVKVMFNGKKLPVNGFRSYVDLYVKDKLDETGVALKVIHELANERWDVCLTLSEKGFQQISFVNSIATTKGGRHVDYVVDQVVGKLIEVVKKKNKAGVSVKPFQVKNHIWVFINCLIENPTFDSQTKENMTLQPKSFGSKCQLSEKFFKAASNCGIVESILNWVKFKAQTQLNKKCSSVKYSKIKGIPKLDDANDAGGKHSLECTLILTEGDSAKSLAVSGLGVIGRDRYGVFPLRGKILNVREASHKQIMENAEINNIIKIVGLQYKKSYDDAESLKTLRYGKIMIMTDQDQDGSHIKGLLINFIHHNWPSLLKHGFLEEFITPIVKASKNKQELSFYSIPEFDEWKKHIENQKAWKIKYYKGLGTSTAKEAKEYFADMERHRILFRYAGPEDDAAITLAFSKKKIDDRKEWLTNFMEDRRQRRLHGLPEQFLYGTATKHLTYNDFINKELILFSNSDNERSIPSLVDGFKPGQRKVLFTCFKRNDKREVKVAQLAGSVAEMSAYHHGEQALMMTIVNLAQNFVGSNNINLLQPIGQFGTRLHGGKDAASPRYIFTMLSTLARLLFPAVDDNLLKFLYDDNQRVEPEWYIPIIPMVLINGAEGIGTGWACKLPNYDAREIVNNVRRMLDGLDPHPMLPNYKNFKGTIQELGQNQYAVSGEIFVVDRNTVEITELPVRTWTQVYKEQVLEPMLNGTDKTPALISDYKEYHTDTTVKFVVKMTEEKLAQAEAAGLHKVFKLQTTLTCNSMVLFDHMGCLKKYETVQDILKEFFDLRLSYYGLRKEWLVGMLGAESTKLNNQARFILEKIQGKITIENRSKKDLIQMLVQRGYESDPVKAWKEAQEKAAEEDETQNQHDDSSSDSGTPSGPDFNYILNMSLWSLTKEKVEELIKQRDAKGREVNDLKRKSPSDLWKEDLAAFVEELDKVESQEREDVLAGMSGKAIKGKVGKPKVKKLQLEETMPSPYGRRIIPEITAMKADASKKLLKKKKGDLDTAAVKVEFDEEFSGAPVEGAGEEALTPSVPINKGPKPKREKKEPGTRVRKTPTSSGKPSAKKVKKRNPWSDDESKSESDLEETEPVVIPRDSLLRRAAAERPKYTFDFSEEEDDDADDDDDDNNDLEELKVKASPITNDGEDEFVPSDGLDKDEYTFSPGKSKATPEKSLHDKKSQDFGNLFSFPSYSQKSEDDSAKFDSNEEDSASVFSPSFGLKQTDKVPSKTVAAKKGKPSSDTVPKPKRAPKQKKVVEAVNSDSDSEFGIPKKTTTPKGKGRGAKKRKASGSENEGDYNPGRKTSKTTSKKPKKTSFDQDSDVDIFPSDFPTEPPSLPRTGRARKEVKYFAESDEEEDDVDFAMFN
Procedure: (§1) Topoisomerase II α and β were affinity precipitated with biotinylated inhibitor as follows. Exponentially growing HL-60 cells were collected on ice and incubated with hypotonic buffer (10 mM HEPES pH 7.5, 1.5 mM MgCl2, 10 mM KCl, 0.5 mM DTT, 0.5 mM PMSF, 1× protease inhibitor cocktail (Complete Mini, Roche Diagnostics GmbH)) for 15 minutes, then 0.6% v/v NP-40 was added and cells were disrupted using a Dounce homogenizer. Lysates were transferred to 1.5 ml Protein LoBind Eppendorf tubes and nuclei were collected after centrifugation at 8000 rpm for 10 minutes and washed twice with hypotonic buffer. To extract and release chromatin associated topoisomerase II nuclei were incubated for 30 minutes in DNAse buffer (20 mM Tris HCl pH 7.5, 5 mM MgCl2, 1 mM CaCl2, 25 mM NaCl, 0.5 mM EDTA, 1% NP-40, 1 mM DTT, 1 × protease inhibitor cocktail, 0.1 mM PMSF) containing 40 U DNAse I (Roche Diagnostics GmbH) followed by addition of twice concentrated nuclear extraction buffer (20 mM HEPES pH 7.5, 3 mM MgCl2, 20 mM KCl, 50 mM β-glycerophosphate, 840 mM NaCl, 1 mM EDTA, 50 mM PNPP, 1 mM DTT, 1 mM PMSF) and rotation for 1 h in the coldroom. The soluble fraction was obtained following centrifugation at 13000 rpm for 15 minutes. 25 μg nuclear extract were used for the affinity precipitation. The salt concentration was adjusted to 150 mM with nuclear extraction buffer (without NaCl) and the sample volume was toped off to 200 μl with precipitation buffer (50 mM HEPES pH 7.4, 150 mM NaCl, 25 mM β-glycerophosphate, 25 mM NaF, 5 mM EGTA, 1 mM EDTA, 15 mM PPI, 1 mM PMSF). Compounds were preincubated for 30 minutes prior addition of biotinylated purine analogue 2 for 2 h. Streptavidin agarose beads (Novagen, 69203) were washed twice with PBS, blocked for 30 minutes with PBS containing 1% BSA, washed twice with PBS and finally with precipitation buffer. 40 μl equilibrated streptavidin agarose beads were added to the sample and incubation was continued for 1 h. Beads were pelleted by centrifugation at 7000 rpm for 5 minutes and washed thrice with precipitation buffer. During the last wash the beads were transferred to a new tube and the bound fraction was released by boiling for 5 minutes in Laemmli sample buffer. Topoisomerase II α and β were detected by Western blot as described below.

[3] = biological target: T2, topoisomerase II alpha (Homo sapiens, UniProt P11388); experiment: as above; assay type: binding; design: endogenous in cells; host or cells: HL-60 nuclear extract; settings: for competition of the interaction of biotinylated purine analogue 2 with topoisomerase II alpha: 1 μM biotinylated analogue 2, competitor in excess (10 μM), QAP 1 also at equimolar concentration
T2 sequence (P11388 whole entry): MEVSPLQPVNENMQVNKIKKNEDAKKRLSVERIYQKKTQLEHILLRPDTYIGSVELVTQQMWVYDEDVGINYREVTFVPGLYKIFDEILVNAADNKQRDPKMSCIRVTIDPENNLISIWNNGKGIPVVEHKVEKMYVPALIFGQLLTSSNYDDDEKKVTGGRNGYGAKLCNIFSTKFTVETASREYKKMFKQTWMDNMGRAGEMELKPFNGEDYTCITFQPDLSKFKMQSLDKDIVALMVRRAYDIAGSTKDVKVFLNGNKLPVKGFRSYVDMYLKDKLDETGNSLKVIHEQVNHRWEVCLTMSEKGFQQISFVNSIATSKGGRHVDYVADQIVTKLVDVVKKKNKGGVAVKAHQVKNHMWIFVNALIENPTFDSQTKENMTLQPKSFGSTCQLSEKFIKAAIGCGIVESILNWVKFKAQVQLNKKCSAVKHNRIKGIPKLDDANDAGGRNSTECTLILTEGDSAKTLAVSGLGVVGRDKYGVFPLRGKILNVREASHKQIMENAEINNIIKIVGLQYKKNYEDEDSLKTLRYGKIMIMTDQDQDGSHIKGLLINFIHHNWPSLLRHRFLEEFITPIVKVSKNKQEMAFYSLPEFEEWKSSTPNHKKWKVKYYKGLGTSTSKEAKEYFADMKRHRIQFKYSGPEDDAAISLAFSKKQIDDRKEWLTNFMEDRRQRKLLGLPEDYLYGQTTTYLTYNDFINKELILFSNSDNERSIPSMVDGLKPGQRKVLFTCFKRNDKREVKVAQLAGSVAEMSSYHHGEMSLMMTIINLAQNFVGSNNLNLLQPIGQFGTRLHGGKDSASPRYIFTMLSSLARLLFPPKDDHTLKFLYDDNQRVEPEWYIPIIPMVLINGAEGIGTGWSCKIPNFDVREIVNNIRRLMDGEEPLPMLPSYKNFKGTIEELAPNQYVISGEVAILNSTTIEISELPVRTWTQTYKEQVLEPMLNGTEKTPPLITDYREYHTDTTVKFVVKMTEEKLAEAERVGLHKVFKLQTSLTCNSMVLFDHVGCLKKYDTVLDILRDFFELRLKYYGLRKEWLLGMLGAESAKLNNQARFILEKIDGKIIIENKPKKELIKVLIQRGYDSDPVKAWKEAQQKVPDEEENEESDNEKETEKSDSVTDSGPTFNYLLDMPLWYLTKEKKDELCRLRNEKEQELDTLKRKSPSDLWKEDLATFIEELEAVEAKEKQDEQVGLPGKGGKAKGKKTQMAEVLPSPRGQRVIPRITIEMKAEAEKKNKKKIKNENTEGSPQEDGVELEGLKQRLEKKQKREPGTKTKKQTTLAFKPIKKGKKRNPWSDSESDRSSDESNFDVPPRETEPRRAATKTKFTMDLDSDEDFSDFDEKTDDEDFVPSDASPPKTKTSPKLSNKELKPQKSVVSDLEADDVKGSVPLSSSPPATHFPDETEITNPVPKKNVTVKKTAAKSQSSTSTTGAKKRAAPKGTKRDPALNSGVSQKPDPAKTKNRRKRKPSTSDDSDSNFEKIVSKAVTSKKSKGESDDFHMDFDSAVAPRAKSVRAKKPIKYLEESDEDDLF
Procedure: as §1

[4] = biological target: T2, topoisomerase II alpha; experiment: DNA-dependent ATPase assay (malachite green); assay type: biochemical; design: screened in an ATPase assay using purified full length tagged human topoisomerase II alpha; made in house; host or cells: Sf21 insect cells, baculovirus (pFastBac1)
Procedure: DNA-dependent ATP hydrolysis of human topoisomerase II α was monitored by measuring the production of inorganic phosphate using acidic molybdate and malachite green. Specific ATPase activity of every batch was tested in a time-course to determine optimal incubation times and enzyme concentrations within the linear range of the assay. Reactions thus contained 10 – 40 nM topoisomerase II (dimer concentration) in reaction buffer (10 mM Tris HCl pH 7.5, 175 mM KCl, 0.1 mM EDTA, 5 mM MgCl2, 2 mM DTT, 2.5% glycerol and 1.7 nM supercoiled pUC18). The specific activity of the human topoisomerase II α enzyme measured in the ATPase assay was 0.24 μmol PO4·min^-1·mg^-1. […] Compounds at the indicated concentrations were added as serial dilutions prepared in DMSO and preincubated for 10 minutes at 37°C on an orbital shaker. Reactions were started by the addition of 400 μM ATP (Sigma, catalog number A2383) and allowed to proceed for 30 minutes. Reactions were terminated by the addition of 200 μl malachite green reagent and the OD was read immediately at 630 nm on a SpectraMax Plus microtiter plate reader using SoftMax Pro software (Molecular Devices). For kinetic analysis, reactions were carried out in duplicate as described above either in the presence of vehicle (DMSO) or QAP 1. Following a preincubation for 5 minutes, ATP was added at the indicated concentrations to start the reactions, which were allowed to proceed for 17 minutes before stopping and reading as above. From these values the OD values obtained at each respective ATP concentration without enzyme were subtracted for background correction. […] A compromise was found by carrying out the competition experiments with a single concentration of the inhibitor that gave a good inhibition of enzyme activity while keeping a measurable signal. The equations used to fit these experiments are: […]
Each competition experiment was fitted (Grafit version 5.04 – Erithacus Software) with these 3 equations and the models that gave unrealistic inhibition constants (above 10 mM) and/or large standard errors (similar to the value of the fitted parameter) were rejected. Then, the F-test was carried out to identify the best fitting model. An alternative method was used to determine the mode of action of the inhibitor. Dose-response experiments were carried out at different ATP concentrations and the corresponding IC50s determined. According to the Cheng-Prusoff equation for linear competitive inhibition: […]
The IC50 of a competitive inhibitive inhibitor should increase in a linear fashion with the concentration of ATP. The measured IC50s were then plotted in function of the ATP concentrations and linear regression analyses were carried out. […] Mean Km and Vmax values were calculated from two independent experiments.

[5] = 1 μM biotinylated compound, HL-60 nuclear extracts

Structure (SMILES): C=CCNC1=C2C[C@@H](C)C[C@H](OC)[C@H](O)[C@@H](C)/C=C(\C)[C@H](OC(N)=O)[C@@H](OC)/C=C\C=C(/C)C(=O)NC(=CC1=O)C2=O [17-AAG, reference compound]
sensitivity of BRCA1 mutant versus BRCA1 reconstituted HCC1937 cells [1]: to a similar extent

pull down of topoisomerase II beta by biotinylated compound [2, 5]: pull down
pull down of topoisomerase II alpha by biotinylated compound [3, 5]: pull down
Structure (SMILES): CCc1nc2c(NC(C)(C)C)nc(Nc3ccc4nc(OCCN5CCN(C(=O)CCOCCOCCOCCNC(=O)CCCC[C@@H]6SC[C@@H]7NC(=O)N[C@@H]76)CC5)sc4c3)nc2[nH]1 [purine analogue 2]

competition of the interaction of biotinylated purine analogue 2 with topoisomerase II beta [2]: lost
IC50 ([4]; full length tagged human topoisomerase II alpha, 400 μM ATP): 432 ± 30 nM
competition of the interaction of biotinylated purine analogue 2 with topoisomerase II alpha [3]: lost
Structure (SMILES): CCc1nc2c(NC(C)(C)C)nc(Nc3ccc4ncsc4c3)nc2[nH]1 [purine analogue 3]

competition of the interaction of biotinylated purine analogue 2 with topoisomerase II beta [2]: not
activity in the ATPase assays ([4]; result in words): inactive
competition of the interaction of biotinylated purine analogue 2 with topoisomerase II alpha [3]: not
Structure (SMILES): CCc1nc2c(N3CCSCC3)nc(Nc3ccc4ncsc4c3)nc2[nH]1 [purine analogue 4]
